Reference: patent US7129379B2, “3-amino-propoxphenyl derivatives (l)” (William John Louis, Austin and Repatriation Medical Centre, priority 1996, dated 2006)

How the values were obtained:
[1] = Duration of beta blockade after intravenous infusion in conscious rats (heart rate response to isoprenaline); assay type: in vivo, Sprague-Dawley rats; conditions: Sprague-Dawley, rat, plasma, iv; conscious male rats, after stopping i.v. infusion; time for inhibition of isoprenaline heart rate response to fall by 50%; read-out: Estimated Plasma Half Life
Protocol: (§1) Healthy male Sprague-Dawley rats were prepared under anaesthesia with indwelling catheters in the carotid artery and jugular vein and allowed to recover for at least 24 h. On the day of the experiment, the arterial catheter was attached to a flexible swivel and then to a pressure transducer for the continuous recording of heart rate and blood pressure. The venous catheters were attached to an infusion pump for drug administration or to a syringe for bolus injections of isoprenaline ([…]). The catheters were suspended out of the animal's way and the rat was allowed to move freely in a small covered enclosure isolated from outside disturbance. When the BP and HR were stable isoprenaline boluses were given at intervals of 10 minutes until the maximum responses in HR were reproducible (±10%). The doses were repeated for at least 40 minutes and the last 5 readings were considered to constitute the baseline response. The doses were continued at the same interval throughtout the test period of a further 150 minutes. Approximately 3.5 minutes before the next dose of isoprenaline the infusion of the test compound was started, to allow for dead volume in the infusion line, and continued for a further 33.5 minutes.
(§2) Rats were used for more than one experiment if their catheters remained patent with daily flushing with heparinised saline, but at least 24 hours separated each experiment.
(§3) Thus rats with the left carotid artery and left jugular vein cannulated can be studied in the conscious state. This allows continuous recording of heart rate and blood pressure before and after intravenous infusions of beta blocking drugs in selected doses. The duration of beta blockade following cessation of an intravenous infusion of a beta blocking drug can be followed by studying the time taken for the increase in heart rate produced by a standard dose of isoprenaline to return to control values following cessation of the beta blocking drug infusion. The maximum recorded inhibition of the heart rate response to isoprenaline during the infusion of the test drug is estimated, and the pharmacodynamic half-life is the time taken for this inhibition to fall by 50% following the cessation of infusion of the drug.
(§4) The half-life of action of the compounds in the systemic circulation as determined as described above in vivo in rats is indicated in Table 3.

[2] = system: β1 adrenoreceptor (guinea-pig atria); experiment: Isoprenaline dose-response in isolated guinea-pig atria (pA2); conditions: β1 (atria) versus β2 (trachea), from the pA2 values
Source text: (§5) Tissue preparation: The animals are killed by a rapid blow to the head followed by cervical dislocation. The chest is opened and the heart and trachea removed and placed in carbonated Krebs-Ringer-Bicarbonate solution (Krebs). Blood is carefully massaged from the chambers of the heart (see L. H. Tung, G. P. Jackman, B. Campbell, S. Louis, D. Iakovidis & W J Louis, J. Cardiovasc. Pharmacol, 21, (2), 484–488, 1993).
(§6) All extraneous tissue is carefully dissected from the heart, and the atria is dissected from the ventricles. A suture with a loop is tied to each atrium and used to suspend the tissue from an organ bath rod. The other loop is attached to a force transducer loaded with 1 g force. The atria are then maintained in the bath with oxygenated (5% Carbogen) Krebs at 37° C. with changes of Krebs at 10 minute intervals for 50 min. Isoprenaline dose response curves are then measured by addition of isoprenaline in increasing doses from 10^−11 M until a plateau in the response is observed (ca 10^−5.5 M). Doses are increased at two minute intervals and maximum force of contraction and heart rate are recorded. At the end of the dose response curve, the organ bath is flushed with fresh Krebs and washed three times every 10 minutes for 50 minutes. The dose of test drug is then added to the organ bath and allowed to equilibrate for 10 minutes. The isoprenaline does-response curve is then repeated. After washing the atria with Krebs for a further 50 minutes as before, the control does-response curve is repeated in the absence of drug.
(§7) The data is used to calculate the pA2 values against atria and trachea (see Mackay, J. Pharm. Pharmacol., 30, 312–313, 1978). […] The ratio of the values indicates the selectivity of each compound.

[3] = target: T1, β1 adrenoreceptor (guinea-pig atria) (Cavia porcellus, UniProt H0W3H1); experiment: as above; conditions: isolated guinea-pig atria, antagonism of isoprenaline, 37° C.; for Kb: read-out: Guinea Pig, pA2 Atria, B1 (converted)
T1 construct: the atria is dissected from the ventricles; from tissue; host or cells: isolated guinea-pig atria (organ bath)
Source text: as §5, §6, §7

[4] = target: T2, β2 adrenoreceptor (guinea-pig trachea) (Cavia porcellus, UniProt Q8K4Z4); experiment: Isoprenaline relaxation of carbachol-contracted isolated guinea-pig trachea (pA2); conditions: isolated guinea-pig tracheal rings, carbachol 10^-6 M contraction, 37° C.; for Kb: read-out: Guinea Pig, pA2 Trachea, B2 (converted)
T2 construct: five rings 1–2 mm in width are cut from the trachea; from tissue; host or cells: isolated guinea-pig tracheal rings (organ bath)
Source text: as §5
All extraneous tissue is dissected away and five rings 1–2 mm in width are cut from the trachea and mounted in sequence on loose loops. The rings are suspended from an isometric transducer set at a resting force of 1.0 g. The rings are then incubated in an organ bath at 37° C. in oxygenated (5% Carbogen) Krebs with 3 changes of Krebs every 10 min for 50 min. Carbachol 10^−6 M is then added to the bath to induce a contraction. Once the contractile force is stable, relaxation is induced by addition of increasing doses of isoprenaline (10^−8 to 10^−5 M) to produce the control dose-response curve. The tissue is then washed in three changes of Krebs every 10 min for 50 min before addition of the drug. After 10 minutes incubation carbachol is added once more and a fresh dose-response to isoprenaline measured. After a further wash of 50 min the control curve is repeated.
as §7

[5] = system: heart rate response to isoprenaline; experiment: Duration of beta blockade after intravenous infusion in conscious rats (heart rate response to isoprenaline); assay type: in vivo, Sprague-Dawley rats; conditions: conscious male rats, after stopping i.v. infusion; time for inhibition of isoprenaline heart rate response to fall by 50%
Protocol: as §1, §2, §3, §4

T2 sequence (Q8K4Z4 whole entry): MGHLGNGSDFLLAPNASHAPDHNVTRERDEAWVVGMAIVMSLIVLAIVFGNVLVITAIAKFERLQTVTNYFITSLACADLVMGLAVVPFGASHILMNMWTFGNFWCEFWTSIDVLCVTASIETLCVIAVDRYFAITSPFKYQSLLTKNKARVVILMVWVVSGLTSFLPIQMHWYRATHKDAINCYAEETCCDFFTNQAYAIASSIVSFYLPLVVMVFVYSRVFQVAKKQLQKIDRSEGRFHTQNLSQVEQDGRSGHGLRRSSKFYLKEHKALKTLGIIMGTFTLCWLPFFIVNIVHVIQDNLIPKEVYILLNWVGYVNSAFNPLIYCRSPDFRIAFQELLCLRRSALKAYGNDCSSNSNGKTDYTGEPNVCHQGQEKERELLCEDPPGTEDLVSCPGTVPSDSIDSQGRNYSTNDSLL
T1 sequence (H0W3H1 1-470): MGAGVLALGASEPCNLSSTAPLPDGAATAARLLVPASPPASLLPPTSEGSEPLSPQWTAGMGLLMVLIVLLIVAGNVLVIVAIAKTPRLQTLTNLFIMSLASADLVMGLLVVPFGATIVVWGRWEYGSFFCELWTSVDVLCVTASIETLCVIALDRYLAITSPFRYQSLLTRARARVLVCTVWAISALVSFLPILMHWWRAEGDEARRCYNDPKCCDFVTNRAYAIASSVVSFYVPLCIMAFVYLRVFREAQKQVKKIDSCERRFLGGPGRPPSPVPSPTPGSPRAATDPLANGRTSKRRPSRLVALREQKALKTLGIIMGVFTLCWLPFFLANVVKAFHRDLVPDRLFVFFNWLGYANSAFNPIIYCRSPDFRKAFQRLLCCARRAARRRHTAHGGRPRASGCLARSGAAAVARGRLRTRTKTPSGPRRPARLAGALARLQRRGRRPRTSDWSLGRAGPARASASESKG

SMILES | half-life [1] [min] | Selectivity [2] | Kb [3] [nM] | Kb [4] [nM] | melting point [°C] | Estimated Plasma Half Life [5] [min] | Guinea Pig, pA2 Atria, B1 [3] | Guinea Pig, pA2 Trachea, B2 [4]
COc1ccc(OCCNCC(O)COc2ccc(OCCOCC(C)C)cc2C#N)cc1 (racemic) [Example 2, 1-(2-cyano-4-(2-(2-methylpropoxy)ethoxy)phenoxy)-2-hydroxy-3-(2-(4-methoxyphenoxy)ethylamino)propane] | ~17 | 1000 | 39.8 | 39800 | 69 to 71 |  |  | 
COc1ccc(CCNCC(O)COc2ccc(OCCOCC3CC3)cc2C#N)cc1OC (racemic) [Example 4, 1-(2-cyano-4-(2-cyclopropylmethoxyethoxy)phenoxy)-2-hydroxy-3-(2-(3,4-dimethoxyphenyl)ethylamino)propane] | ~15 | 794 | 50.1 | 39800 | 84 to 86 |  |  | 
COCCOc1ccc(OCC(O)CNCCOc2ccc(OC)cc2)cc1 (racemic) [Example 5, 1-(4-(2-methoxyethoxy)phenoxy)-2-hydroxy-3-(2-(4-methoxyphenoxy)ethylamino)propane] | 10 to 20 | 501 | 100 | 50100 | 113 to 115 |  |  | 
CCOCCOc1ccc(OCC(O)CNCCc2ccc(OC)c(OC)c2)cc1 (racemic) [Example 7, 1-(4-(2-ethoxyethoxy)phenoxy)-2-hydroxy-3-(2-(3,4-dimethoxyphenyl)ethylamino)propane] | ~10 | >501 | 63.1 | > 31600 | 140 to 143 |  |  | 
CCOCCOc1ccc(OC[C@@H](O)CNCCc2ccc(OC)c(OC)c2)cc1 [Example 1, S(−)-1-(4-(2-ethoxyethoxy)phenoxy)-2-hydroxy-3-(2-(3,4-dimethoxyphenyl)ethylamino)propane] |  | 2512 |  |  |  | 10 to 20 | 7.7 | 4.3
